BindingDB's records for doi:10.1021/acs.jmedchem.6b01566 (Glaxosmithkline, 2017)
pKi: −log10 of the molar value.

Biological target: Histone acetyltransferase KAT2B (Homo sapiens, UniProt Q92831)
Test: Binding affinity to human partial length PCAF bromodomain expressed in mammalian expression system by BROMOscan method

Chain of Histone acetyltransferase KAT2B (Q92831 whole entry): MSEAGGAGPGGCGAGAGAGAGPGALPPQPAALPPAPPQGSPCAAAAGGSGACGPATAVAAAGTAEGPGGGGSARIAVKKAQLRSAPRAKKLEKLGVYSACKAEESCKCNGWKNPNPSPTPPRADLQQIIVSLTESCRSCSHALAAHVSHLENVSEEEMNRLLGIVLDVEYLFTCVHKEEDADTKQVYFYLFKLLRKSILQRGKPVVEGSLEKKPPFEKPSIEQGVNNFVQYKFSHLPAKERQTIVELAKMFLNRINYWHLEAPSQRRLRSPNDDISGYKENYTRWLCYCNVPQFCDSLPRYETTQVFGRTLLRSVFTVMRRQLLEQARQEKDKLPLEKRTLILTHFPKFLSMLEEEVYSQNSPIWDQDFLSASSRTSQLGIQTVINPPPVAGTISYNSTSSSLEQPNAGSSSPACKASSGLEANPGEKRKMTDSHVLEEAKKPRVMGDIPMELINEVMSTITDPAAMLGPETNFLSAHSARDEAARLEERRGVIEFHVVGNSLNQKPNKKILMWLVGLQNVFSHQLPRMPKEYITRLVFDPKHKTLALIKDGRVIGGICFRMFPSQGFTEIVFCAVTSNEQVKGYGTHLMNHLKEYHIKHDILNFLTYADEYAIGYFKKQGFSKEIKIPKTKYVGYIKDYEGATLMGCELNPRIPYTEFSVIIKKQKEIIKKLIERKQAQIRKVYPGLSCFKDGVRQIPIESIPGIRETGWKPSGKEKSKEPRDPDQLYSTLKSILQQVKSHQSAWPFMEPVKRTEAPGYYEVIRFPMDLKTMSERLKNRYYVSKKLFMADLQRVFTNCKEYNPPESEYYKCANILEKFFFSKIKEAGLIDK

Compound `CN1C[C@H](Nc2cnn(C)c(=O)c2Br)C[C@H](c2ccccc2)C1` has a pKi of 8.90.
